Results from ChEMBL document CHEMBL1201862, “PubChem BioAssay data set” (2004).
Calls of active or inactive are those of the source.

Assays:
[1] = molecular target: T1, Insulin-degrading enzyme (Homo sapiens, UniProt P14735); assay: recombinant IDE activation, cell-free – biochemical, fluorescence polarization, counter-screen for IDE activator project, dose response (AID 588681)
T1 sequence (P14735 whole entry): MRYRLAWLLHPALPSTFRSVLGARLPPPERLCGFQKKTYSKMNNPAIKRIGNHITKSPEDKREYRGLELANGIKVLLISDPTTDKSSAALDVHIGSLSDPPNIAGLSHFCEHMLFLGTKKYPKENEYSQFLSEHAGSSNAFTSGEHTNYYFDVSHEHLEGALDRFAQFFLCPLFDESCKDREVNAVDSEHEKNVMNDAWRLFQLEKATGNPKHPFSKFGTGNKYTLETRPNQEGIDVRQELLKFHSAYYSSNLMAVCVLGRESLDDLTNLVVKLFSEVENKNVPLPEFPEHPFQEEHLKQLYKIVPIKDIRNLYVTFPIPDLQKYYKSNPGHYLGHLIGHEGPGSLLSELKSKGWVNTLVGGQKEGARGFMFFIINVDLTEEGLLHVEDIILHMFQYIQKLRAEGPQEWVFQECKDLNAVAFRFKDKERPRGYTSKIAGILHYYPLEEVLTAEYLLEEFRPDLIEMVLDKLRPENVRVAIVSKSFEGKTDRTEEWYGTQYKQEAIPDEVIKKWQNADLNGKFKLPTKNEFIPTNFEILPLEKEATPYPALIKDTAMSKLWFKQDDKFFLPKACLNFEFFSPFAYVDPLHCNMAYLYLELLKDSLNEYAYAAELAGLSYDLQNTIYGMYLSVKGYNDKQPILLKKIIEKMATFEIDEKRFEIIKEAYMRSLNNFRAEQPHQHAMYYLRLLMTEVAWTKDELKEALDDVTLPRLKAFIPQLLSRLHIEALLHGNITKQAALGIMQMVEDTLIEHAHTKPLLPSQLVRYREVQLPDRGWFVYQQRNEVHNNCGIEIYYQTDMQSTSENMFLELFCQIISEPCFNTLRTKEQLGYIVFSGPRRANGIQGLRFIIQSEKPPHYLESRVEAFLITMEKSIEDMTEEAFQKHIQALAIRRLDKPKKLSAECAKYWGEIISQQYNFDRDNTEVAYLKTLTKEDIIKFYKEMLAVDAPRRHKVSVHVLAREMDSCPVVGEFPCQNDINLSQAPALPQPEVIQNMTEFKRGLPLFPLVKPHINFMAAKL

[2] = molecular target: T2, Caspase-3 (Homo sapiens, UniProt P42574); assay: human caspase-3 protease activity blockade – biochemical, fluorescence, cherry-picked samples, selectivity assay for caspase-6 allosteric inhibitor project, dose response (AID 743291)
T2 sequence (P42574 whole entry): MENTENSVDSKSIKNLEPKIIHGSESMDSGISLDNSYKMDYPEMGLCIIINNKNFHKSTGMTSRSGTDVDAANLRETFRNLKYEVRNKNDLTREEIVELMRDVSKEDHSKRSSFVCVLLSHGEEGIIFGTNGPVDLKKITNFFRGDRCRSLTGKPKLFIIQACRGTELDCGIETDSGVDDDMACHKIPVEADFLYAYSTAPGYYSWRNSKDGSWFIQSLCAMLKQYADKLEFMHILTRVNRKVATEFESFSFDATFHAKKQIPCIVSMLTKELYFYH

[3] = molecular target: Serine/threonine-protein kinase PLK3 (Homo sapiens, UniProt Q9H4B4); format: functional
[4] = molecular target: Serine/threonine-protein kinase D2 (Homo sapiens, UniProt Q9BZL6); format: functional;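 note: measured against PRKD2 as one member of a kinome-wide kinase profiling panel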
Sequence of Serine/threonine-protein kinase D2 (Q9BZL6 whole entry): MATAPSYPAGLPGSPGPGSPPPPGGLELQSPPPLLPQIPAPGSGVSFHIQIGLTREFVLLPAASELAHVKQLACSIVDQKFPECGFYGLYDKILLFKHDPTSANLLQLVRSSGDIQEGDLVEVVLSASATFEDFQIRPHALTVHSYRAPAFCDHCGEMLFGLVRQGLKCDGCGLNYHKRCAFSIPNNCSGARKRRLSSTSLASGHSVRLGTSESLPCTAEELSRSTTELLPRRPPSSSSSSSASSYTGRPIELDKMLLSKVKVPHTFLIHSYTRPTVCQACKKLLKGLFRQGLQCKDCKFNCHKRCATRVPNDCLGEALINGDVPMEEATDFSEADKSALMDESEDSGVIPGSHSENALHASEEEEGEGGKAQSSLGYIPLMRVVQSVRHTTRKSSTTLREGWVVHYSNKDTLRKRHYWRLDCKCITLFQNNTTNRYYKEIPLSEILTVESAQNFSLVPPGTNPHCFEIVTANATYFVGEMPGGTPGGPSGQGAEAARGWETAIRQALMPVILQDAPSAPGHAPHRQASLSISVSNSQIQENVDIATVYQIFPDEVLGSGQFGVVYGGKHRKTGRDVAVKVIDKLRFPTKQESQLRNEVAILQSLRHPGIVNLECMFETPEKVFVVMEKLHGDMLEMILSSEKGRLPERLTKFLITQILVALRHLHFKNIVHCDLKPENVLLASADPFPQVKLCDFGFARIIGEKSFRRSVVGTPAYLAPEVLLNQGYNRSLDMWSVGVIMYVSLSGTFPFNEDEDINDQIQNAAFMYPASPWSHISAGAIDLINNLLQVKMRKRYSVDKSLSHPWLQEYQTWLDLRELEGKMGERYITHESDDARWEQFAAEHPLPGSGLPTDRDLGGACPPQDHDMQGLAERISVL

[5] = molecular target: Testis-specific serine/threonine-protein kinase 2 (Homo sapiens, UniProt Q96PF2); format: functional;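 note: part of the Navigating the Kinome panel, target entry STK22B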
[6] = molecular target: Serine/threonine-protein kinase 17A (Homo sapiens, UniProt Q9UEE5); format: functional
Sequence of Serine/threonine-protein kinase 17A (Q9UEE5 whole entry): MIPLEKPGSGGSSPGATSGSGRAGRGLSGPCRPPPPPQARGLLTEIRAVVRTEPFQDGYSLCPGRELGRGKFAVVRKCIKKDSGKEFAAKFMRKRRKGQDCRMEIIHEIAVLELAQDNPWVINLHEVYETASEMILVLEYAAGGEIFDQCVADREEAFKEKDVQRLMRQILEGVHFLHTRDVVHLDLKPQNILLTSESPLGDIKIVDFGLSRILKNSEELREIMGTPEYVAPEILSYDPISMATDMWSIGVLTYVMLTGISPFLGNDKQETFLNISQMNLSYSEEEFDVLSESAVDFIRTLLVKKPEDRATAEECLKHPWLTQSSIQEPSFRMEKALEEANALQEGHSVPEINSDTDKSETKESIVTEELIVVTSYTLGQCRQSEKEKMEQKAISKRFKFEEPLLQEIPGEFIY

[7] = molecular target: Non-receptor tyrosine-protein kinase TYK2 (Homo sapiens, UniProt P29597); format: functional
[8] = molecular target: MAP kinase-interacting serine/threonine-protein kinase 2 (Homo sapiens, UniProt Q9HBH9); format: functional
Sequence of MAP kinase-interacting serine/threonine-protein kinase 2 (Q9HBH9 whole entry): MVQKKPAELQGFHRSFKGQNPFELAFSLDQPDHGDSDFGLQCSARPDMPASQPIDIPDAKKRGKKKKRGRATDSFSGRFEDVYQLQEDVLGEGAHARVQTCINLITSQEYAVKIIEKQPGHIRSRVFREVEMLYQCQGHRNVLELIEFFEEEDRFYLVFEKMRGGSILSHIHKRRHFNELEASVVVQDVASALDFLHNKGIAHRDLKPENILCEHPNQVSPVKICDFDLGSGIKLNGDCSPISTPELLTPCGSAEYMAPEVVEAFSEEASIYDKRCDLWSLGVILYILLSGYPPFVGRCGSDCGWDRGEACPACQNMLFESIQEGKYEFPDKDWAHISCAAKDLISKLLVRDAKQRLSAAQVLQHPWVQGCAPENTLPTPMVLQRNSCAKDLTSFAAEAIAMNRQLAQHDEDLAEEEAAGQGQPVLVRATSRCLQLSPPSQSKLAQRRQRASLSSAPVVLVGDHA

[9] = molecular target: Interleukin-1 receptor-associated kinase 4 (Homo sapiens, UniProt Q9NWZ3); format: functional
Sequence of Interleukin-1 receptor-associated kinase 4 (Q9NWZ3 whole entry): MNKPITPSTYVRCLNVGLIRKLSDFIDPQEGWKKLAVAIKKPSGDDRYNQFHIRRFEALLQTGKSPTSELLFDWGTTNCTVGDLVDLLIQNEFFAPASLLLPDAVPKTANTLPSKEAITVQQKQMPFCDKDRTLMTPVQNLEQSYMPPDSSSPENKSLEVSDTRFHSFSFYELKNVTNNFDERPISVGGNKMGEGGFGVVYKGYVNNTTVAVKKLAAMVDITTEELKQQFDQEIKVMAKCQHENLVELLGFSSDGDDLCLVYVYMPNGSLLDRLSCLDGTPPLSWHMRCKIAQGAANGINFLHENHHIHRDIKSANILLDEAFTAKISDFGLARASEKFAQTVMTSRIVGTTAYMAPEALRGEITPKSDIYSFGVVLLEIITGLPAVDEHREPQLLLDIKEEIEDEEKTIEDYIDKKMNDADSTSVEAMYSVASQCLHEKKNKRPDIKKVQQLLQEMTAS

[10] = molecular target: Mitogen-activated protein kinase kinase kinase kinase 5 (Homo sapiens, UniProt Q9Y4K4); format: functional;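 note: measured as one member of a kinome-spanning kinase panel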
Sequence of Mitogen-activated protein kinase kinase kinase kinase 5 (Q9Y4K4 whole entry): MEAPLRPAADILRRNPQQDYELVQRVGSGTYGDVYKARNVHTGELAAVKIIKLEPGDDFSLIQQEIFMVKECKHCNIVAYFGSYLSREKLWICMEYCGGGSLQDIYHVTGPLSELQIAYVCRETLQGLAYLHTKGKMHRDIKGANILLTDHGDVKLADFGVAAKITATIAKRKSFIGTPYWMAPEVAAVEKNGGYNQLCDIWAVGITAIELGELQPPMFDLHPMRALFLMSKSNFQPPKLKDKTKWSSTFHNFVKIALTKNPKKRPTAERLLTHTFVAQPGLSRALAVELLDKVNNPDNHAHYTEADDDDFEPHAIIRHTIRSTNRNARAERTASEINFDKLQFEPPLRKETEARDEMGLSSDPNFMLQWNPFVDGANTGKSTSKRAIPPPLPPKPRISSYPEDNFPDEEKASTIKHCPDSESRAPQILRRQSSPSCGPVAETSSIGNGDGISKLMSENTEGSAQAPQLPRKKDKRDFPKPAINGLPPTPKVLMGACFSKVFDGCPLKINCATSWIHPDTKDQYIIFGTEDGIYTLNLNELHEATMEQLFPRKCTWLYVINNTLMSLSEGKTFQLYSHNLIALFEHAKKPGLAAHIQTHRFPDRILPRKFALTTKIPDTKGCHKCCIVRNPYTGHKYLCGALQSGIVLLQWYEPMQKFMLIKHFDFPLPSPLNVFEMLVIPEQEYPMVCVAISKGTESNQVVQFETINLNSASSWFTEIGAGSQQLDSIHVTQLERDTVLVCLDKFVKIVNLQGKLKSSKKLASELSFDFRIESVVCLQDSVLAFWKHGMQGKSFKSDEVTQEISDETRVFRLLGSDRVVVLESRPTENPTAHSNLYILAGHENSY

[11] = molecular target: Tyrosine-protein kinase Fer (Homo sapiens, UniProt P16591); format: functional;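 note: FER tested as one member of a kinome panel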
Sequence of Tyrosine-protein kinase Fer (P16591 whole entry): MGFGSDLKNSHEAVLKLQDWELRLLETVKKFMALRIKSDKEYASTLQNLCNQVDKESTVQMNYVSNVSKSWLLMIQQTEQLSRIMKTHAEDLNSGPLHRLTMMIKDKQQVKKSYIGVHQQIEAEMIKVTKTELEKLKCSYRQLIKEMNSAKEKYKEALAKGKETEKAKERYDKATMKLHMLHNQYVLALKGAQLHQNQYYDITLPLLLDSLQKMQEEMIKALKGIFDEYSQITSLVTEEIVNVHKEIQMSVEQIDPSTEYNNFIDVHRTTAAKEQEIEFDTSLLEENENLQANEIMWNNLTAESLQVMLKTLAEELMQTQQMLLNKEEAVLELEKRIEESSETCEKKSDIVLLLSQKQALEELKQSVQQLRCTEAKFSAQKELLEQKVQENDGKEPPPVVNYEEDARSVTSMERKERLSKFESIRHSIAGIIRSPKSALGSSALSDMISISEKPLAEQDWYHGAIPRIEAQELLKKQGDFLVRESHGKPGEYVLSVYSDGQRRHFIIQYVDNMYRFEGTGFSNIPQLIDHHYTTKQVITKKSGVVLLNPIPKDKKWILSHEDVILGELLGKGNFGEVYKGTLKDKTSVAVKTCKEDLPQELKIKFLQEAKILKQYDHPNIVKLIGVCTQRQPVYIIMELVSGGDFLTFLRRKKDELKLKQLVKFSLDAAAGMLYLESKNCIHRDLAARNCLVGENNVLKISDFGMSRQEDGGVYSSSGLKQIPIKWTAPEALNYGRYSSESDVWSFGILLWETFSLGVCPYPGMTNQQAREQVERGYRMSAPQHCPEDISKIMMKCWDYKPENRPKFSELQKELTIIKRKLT

[12] = molecular target: Calcium/calmodulin-dependent protein kinase type 1 (Homo sapiens, UniProt Q14012); format: functional
[13] = molecular target: Mitogen-activated protein kinase 12 (Homo sapiens, UniProt P53778); format: functional;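 note: measured as one member of a kinome-wide kinase profiling panel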
Sequence of Mitogen-activated protein kinase 12 (P53778 whole entry): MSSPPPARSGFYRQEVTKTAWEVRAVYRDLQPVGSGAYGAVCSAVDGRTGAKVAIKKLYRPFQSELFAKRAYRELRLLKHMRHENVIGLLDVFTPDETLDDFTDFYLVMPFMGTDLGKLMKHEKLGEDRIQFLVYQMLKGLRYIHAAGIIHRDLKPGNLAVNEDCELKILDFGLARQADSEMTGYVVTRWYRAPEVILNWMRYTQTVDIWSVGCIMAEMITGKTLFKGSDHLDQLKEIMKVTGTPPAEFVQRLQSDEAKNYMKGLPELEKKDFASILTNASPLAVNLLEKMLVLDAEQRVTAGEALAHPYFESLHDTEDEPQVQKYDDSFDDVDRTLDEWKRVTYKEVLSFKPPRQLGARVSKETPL

[14] = molecular target: Serine/threonine-protein kinase MRCK alpha (Homo sapiens, UniProt Q5VT25); format: functional
[15] = molecular target: Serine/threonine-protein kinase BRSK1 (Homo sapiens, UniProt Q8TDC3); format: functional;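 note: measured within a kinome-wide kinase panel, with the target listed as KIAA1811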
Sequence of Serine/threonine-protein kinase BRSK1 (Q8TDC3 whole entry, the tested form may be a part): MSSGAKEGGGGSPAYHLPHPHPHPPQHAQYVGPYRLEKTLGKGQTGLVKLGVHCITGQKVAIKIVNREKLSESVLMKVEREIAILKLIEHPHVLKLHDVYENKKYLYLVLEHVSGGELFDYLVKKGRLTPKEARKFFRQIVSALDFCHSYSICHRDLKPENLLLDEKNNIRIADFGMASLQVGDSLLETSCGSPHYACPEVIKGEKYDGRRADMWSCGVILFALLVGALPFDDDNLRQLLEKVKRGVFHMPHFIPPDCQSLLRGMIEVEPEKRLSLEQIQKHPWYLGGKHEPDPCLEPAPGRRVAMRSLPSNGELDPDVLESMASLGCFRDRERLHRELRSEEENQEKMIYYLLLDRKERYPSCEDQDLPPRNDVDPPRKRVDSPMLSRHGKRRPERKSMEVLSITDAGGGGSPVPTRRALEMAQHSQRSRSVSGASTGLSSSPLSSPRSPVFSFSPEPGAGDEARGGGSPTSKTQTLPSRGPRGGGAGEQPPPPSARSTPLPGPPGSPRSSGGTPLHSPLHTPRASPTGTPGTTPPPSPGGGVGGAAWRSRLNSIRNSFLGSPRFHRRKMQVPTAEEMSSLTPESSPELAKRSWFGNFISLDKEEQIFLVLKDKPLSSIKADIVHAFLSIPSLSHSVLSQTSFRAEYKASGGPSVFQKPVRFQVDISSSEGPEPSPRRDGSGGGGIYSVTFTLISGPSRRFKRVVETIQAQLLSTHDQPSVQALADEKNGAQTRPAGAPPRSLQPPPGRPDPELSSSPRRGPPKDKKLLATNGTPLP

[16] = molecular target: LIM domain kinase 1 (Homo sapiens, UniProt P53667); assay: Navigating the Kinome. Panel member name: LIMK1; format: functional
[17] = molecular target: T2, Caspase-3; format: functional
[18] = molecular target: T3, Sentrin-specific protease 8 (Homo sapiens, UniProt Q96LD8); format: functional;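 note: luminescence read-out of SENP8 inhibition, dose-response confirmation following an ultra-high-throughput screen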
T3 sequence (Q96LD8 whole entry): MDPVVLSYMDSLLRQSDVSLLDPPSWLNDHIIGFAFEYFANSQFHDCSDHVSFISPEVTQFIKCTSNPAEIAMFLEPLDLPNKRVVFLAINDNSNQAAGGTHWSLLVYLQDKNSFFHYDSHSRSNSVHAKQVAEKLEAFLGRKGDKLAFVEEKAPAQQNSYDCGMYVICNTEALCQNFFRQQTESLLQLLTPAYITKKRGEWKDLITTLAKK

[19] = molecular target: Caspase-8 (Homo sapiens, UniProt Q14790); assay: inhibitors of purified CASP8 protease – biochemical, Z-IETD-R110 fluorescence, cherry-picked samples, selectivity assay for caspase-6 inhibitor project, dose response (AID 743294)

## CCN(CC)CCCC(C)n1c2nc(=O)[nH]c(=O)c-2nc2cc(Cl)ccc21 (stereo not drawn)
[1]
  EC50: > 54.7 µM (inactive)
[2]
  AC50: 0.561 µM (active)

## OC1CCC(Nc2nc(Cl)cc(-c3c[nH]c4ncccc34)n2)CC1 (stereo not drawn)
[3]
  Ki: > 7.94 µM (inactive)
[4]
  Ki: 0.02 µM (active)
  pKi: 7.7
[5]
  Ki: > 1.58 µM (inactive)
[6]
  Ki: 0.0398 µM (active)
  pKi: 7.4
[7]
  Ki: 1 µM (active)
[8]
  Ki: 0.0398 µM (active)
  pKi: 7.4
[9]
  Ki: 0.0398 µM (active)
  pKi: 7.4
[10]
  Ki: 0.0794 µM (active)
  pKi: 7.1
[11]
  Ki: 0.2 µM (active)
  pKi: 6.7
[12]
  Ki: > 0.794 µM (inactive)
[13]
  Ki: 0.158 µM (active)
  pKi: 6.8
[14]
  Ki: 0.0316 µM (active)
  pKi: 7.5
[15]
  Ki: 1 µM (active)
  pKi: 6

## COc1cccc(CNC(=O)c2cnc(-c3ccncc3)nc2)c1
[16]
  Ki: > 3.16 µM (inactive)

## O=C(COC(=O)c1ccc([N+](=O)[O-])s1)Nc1ccc(F)cc1
[17]
  IC50: 8.43 µM (active)
[18]
  IC50: 4.05 µM (active)
[19]
  AC50: 18.6 µM (active)
